Structures can show the parent of a compound that is named as a salt.
melting point [°C]	SMILES
> 250	CCCc1nc2c(N)nc3cc(-c4cccnc4)ccc3c2n1CC1CCN(S(C)(=O)=O)CC1 (as salt: HCl) (hydrate or solvate) [Example 411, 1-{[1-(Methanesulfonyl)piperidin-4-yl]methyl}-2-propyl-7-(pyridin-3-yl)-1H-imidazo[4,5-c]quinolin-4-amine]
145 to 146	CCOCc1nc2c(N)nc3cc(-c4cccc(C(=O)N5CCCC5)c4)ccc3c2n1CCCOC (as salt: HCl) [Example 175, {3-[4-Amino-2-ethoxymethyl-1-(3-methoxypropyl)-1H-imidazo[4,5-c]quinolin-7-yl]phenyl}pyrrolidin-1-ylmethanone]
254 to 255	CCOCc1nc2c(N)nc3cc(-c4cccnc4)ccc3c2n1CC1CCN(S(C)(=O)=O)CC1 (as salt: HCl) [Example 178, 2-Ethoxymethyl-1-{[1-(methanesulfonyl)piperidin-4-yl]methyl}-7-(pyridin-3-yl)-1H-imidazo[4,5-c]quinolin-4-amine]
> 250	CCCc1nc2c(N)nc3cc(CCc4ccc5sc(C)nc5c4)ccc3c2n1CC(C)C (as salt: HCl) [Example 457, 7-[2-(2-Methylbenzothiazol-5-yl)ethyl]-1-(2-methylpropyl)-2-propyl-1H-imidazo[4,5-c]quinolin-4-amine]
> 250	CCCc1nc2c(N)nc3cc(CCc4ccc(OC)cc4)ccc3c2n1CC(C)C (as salt: HCl) [Example 459, 7-[2-(4-Methoxyphenyl)ethyl]-1-(2-methylpropyl)-2-propyl-1H-imidazo[4,5-c]quinolin-4-amine]
> 250	CCCc1nc2c(N)nc3cc(CCc4ccccc4OC)ccc3c2n1CC(C)C (as salt: HCl) [Example 460, 7-[2-(2-Methoxyphenyl)ethyl]-1-(2-methylpropyl)-2-propyl-1H-imidazo[4,5-c]quinolin-4-amine]
> 250	CCOCc1nc2c(N)nc3cc(-c4cccnc4)ccc3c2n1CC1CCNCC1 (as salt: hydrochloride) [Example 177, 2-Ethoxymethyl-1-(piperidin-4-ylmethyl)-7-(pyridin-3-yl)-1H-imidazo[4,5-c]quinolin-4-amine trihydrochloride]
> 250	CCc1nc2c(N)nc3cc(-c4cccnc4)ccc3c2n1CC1CCNCC1 (as salt: hydrochloride) [Example 405, 2-Ethyl-1-(piperidin-4-ylmethyl)-7-(pyridin-3-yl)-1H-imidazo[4,5-c]quinolin-4-amine trihydrochloride]
> 250	CCCc1nc2c(N)nc3cc(-c4cccnc4)ccc3c2n1CC1CCNCC1 (as salt: hydrochloride) [Example 410, 1-(Piperidin-4-ylmethyl)-2-propyl-7-(pyridin-3-yl)-1H-imidazo[4,5-c]quinolin-4-amine trihydrochloride]
> 250	CCOCc1nc2c(N)nc3cc(-c4cccnc4)ccc3c2n1CC1CCCCN1 (centres unmarked) (as salt: hydrochloride) [Example 491, 2-Ethoxymethyl-1-(piperidin-2-ylmethyl)-7-(pyridin-3-yl)-1H-imidazo[4,5-c]quinolin-4-amine trihydrochloride]
130 to 132	CCOCc1nc2c(N)nc3cc(-c4cccnc4)ccc3c2n1CC1CCN(C(=O)C(C)C)CC1 (hydrate or solvate) [Example 179, 2-Ethoxymethyl-1-[(1-isobutyrylpiperidin-4-yl)methyl]-7-(pyridin-3-yl)-1H-imidazo[4,5-c]quinolin-4-amine]
224 to 225	CCOCc1nc2c(N)nc3cc(-c4cccnc4)ccc3c2n1CC1CCN(C(=O)N2CCOCC2)CC1 (hydrate or solvate) [Example 180, 2-Ethoxymethyl-1-{[1-(morpholin-4-ylcarbonyl)piperidin-4-yl]methyl}-7-(pyridin-3-yl)-1H-imidazo[4,5-c]quinolin-4-amine]
72 to 75	CCCCCCCCCCCCCCCC(=O)N1CCC(Cn2c(COCC)nc3c(N)nc4cc(-c5cccnc5)ccc4c32)CC1 (hydrate or solvate) [Example 181, 2-Ethoxymethyl-1-[(1-palmitoylpiperidin-4-yl)methyl]-7-(pyridin-3-yl)-1H-imidazo[4,5-c]quinolin-4-amine]
184 to 187	COCCc1nc2c(N)nc3cc(-c4cccc(CO)c4)ccc3c2n1CCCN1CCCC1=O (hydrate or solvate) [Example 185, 1-{3-[4-Amino-7-(3-hydroxymethylphenyl)-2-(2-methoxyethyl)-1H-imidazo[4,5-c]quinolin-1-yl]propyl}pyrrolidin-2-one]
207 to 210	COCCc1nc2c(N)nc3ccc(-c4ccccc4)cc3c2n1CCCN1CCCC1=O (hydrate or solvate) [Example 187, 1-{3-[4-Amino-2-(2-methoxyethyl)-8-phenyl-1H-imidazo[4,5-c]quinolin-1-yl]propyl}pyrrolidin-2-one]
164 to 167	COCCc1nc2c(N)nc3ccc(-c4cccc(C(C)=O)c4)cc3c2n1CCCN1CCCC1=O (hydrate or solvate) [Example 189, 1-{3-[8-(3-Acetylphenyl)-4-amino-2-(2-methoxyethyl)-1H-imidazo[4,5-c]quinolin-1-yl]propyl}pyrrolidin-2-one]

melting point [°C]	SMILES
156 to 158	CCOCc1nc2c(N)nc3cc(-c4ccccc4)ccc3c2n1CC1CCN(C(=O)C(C)C)CC1 (hydrate or solvate) [Example 194, 2-Ethoxymethyl-1-[(1-isobutyrylpiperidin-4-yl)methyl]-7-phenyl-1H-imidazo[4,5-c]quinolin-4-amine]
196 to 198	CCOCc1nc2c(N)nc3cc(-c4cccnc4)ccc3c2n1CCCCNC(=O)C1CCCC1 (hydrate or solvate) [Example 374, N-{4-[4-Amino-2-ethoxymethyl-7-(pyridin-3-yl)-1H-imidazo[4,5-c]quinolin-1-yl]butyl}cyclopentanecarboxamide]
186 to 188	CCOCc1nc2c(N)nc3cc(-c4cccnc4)ccc3c2n1CCCCNS(C)(=O)=O (hydrate or solvate) [Example 375, N-{4-[4-Amino-2-ethoxymethyl-7-(pyridin-3-yl)-1H-imidazo[4,5-c]quinolin-1-yl]butyl}methanesulfonamide]
144 to 146	CCCC(=O)NCCCCn1c(CCC)nc2c(N)nc3cc(-c4cccnc4)ccc3c21 (hydrate or solvate) [Example 380, N-{4-[4-Amino-2-propyl-7-(pyridin-3-yl)-1H-imidazo[4,5-c]quinolin-1-yl]butyl}butyramide]
168 to 170	CCCc1nc2c(N)nc3cc(-c4cccnc4)ccc3c2n1CCCCNC(=O)C(C)C (hydrate or solvate) [Example 381, N-{4-[4-Amino-2-propyl-7-(pyridin-3-yl)-1H-imidazo[4,5-c]quinolin-1-yl]butyl}-2-methylpropanamide]
180 to 182	CCCc1nc2c(N)nc3cc(-c4cccnc4)ccc3c2n1CCCCNC(=O)C1CCCC1 (hydrate or solvate) [Example 382, N-{4-[4-Amino-2-propyl-7-(pyridin-3-yl)-1H-imidazo[4,5-c]quinolin-1-yl]butyl}cyclopentanecarboxamide]
184 to 185	CCCNC(=O)NCCCCn1c(CCC)nc2c(N)nc3cc(-c4cccnc4)ccc3c21 (hydrate or solvate) [Example 384]
173 to 175	CCCc1nc2c(N)nc3cc(-c4cccnc4)ccc3c2n1CCCCNC(=O)NC(C)C (hydrate or solvate) [Example 385]
176 to 177	COCc1nc2c(N)nc3cc(-c4cccc(C(=O)N5CCOCC5)c4)ccc3c2n1CC(C)(C)O (hydrate or solvate) [Example 401, {3-[4-Amino-1-(2-hydroxy-2-methylpropyl)-2-methoxymethyl-1H-imidazo[4,5-c]quinolin-7-yl]phenyl}morpholin-4-ylmethanone]
224 to 225	COCc1nc2c(N)nc3cc(-c4cncc(CO)c4)ccc3c2n1CC(C)(C)O (hydrate or solvate) [Example 402, 1-[4-Amino-7-(5-hydroxymethylpyridin-3-yl)-2-methoxymethyl-1H-imidazo[4,5-c]quinolin-1-yl]-2-methylpropan-2-ol]
228 to 229	CCc1nc2c(N)nc3cc(-c4cccnc4)ccc3c2n1CC1CCN(S(C)(=O)=O)CC1 (hydrate or solvate) [Example 406, 2-Ethyl-1-{[1-(methanesulfonyl)piperidin-4-yl]methyl}-7-(pyridin-3-yl)-1H-imidazo[4,5-c]quinolin-4-amine]
189 to 191	CCc1nc2c(N)nc3cc(-c4cccnc4)ccc3c2n1CC1CCN(C(=O)C(C)C)CC1 (hydrate or solvate) [Example 407, 1-{4-[4-Amino-2-ethyl-7-(pyridin-3-yl)-1H-imidazo[4,5-c]quinolin-1-ylmethyl]piperidin-1-yl}-2-methylpropan-1-one]
255 to 256	CCc1nc2c(N)nc3cc(-c4cccnc4)ccc3c2n1CC1CCN(C(=O)NC(C)C)CC1 (hydrate or solvate) [Example 408, 4-[4-Amino-2-ethyl-7-(pyridin-3-yl)-1H-imidazo[4,5-c]quinolin-1-ylmethyl]piperidin-1-carboxylic acid isopropylamide]
205 to 207	CCOCc1nc2c(N)nc3cc(-c4cccnc4)ccc3c2n1CCN1CCN(S(C)(=O)=O)CC1 (hydrate or solvate) [Example 415, 2-Ethoxymethyl-1-{2-[4-(methanesulfonyl)piperazin-1-yl]ethyl}-7-(pyridin-3-yl)-1H-imidazo[4,5-c]quinolin-4-amine]
190 to 192	CCOCc1nc2c(N)nc3cc(-c4cccnc4)ccc3c2n1CCN1CCN(C(=O)C(C)C)CC1 (hydrate or solvate) [Example 416, 1-(4-{2-[4-Amino-2-ethoxymethyl-7-(pyridin-3-yl)-1H-imidazo[4,5-c]quinolin-1-yl]ethyl}piperazin-1-yl)-2-methylpropan-1-one]
130 to 131	CCCc1nc2c(N)nc3cc(Cc4ccccc4)ccc3c2n1CC(C)(C)O (hydrate or solvate) [Example 432, 1-(4-Amino-7-benzyl-2-propyl-1H-imidazo[4,5-c]quinolin-1-yl)-2-methylpropan-2-ol]

From patent US7598382B2, “Aryl substituted imidazoquinolines” (Coley Pharmaceutical Group, Inc., priority 2002, dated 2009)
